Assay results reported in PubChem BioAssay (NCI).
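Five compound concentrations were applied to cells in 96-well plates for 48 hours; endpoints were derived by simple linear interpolation of the resulting dose-response curve. TGI denotes the concentration required for complete inhibition of growth.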

What was measured:
Assay in all cases: DTP human tumour cell line panel, 48 h
ACHN renal = test system: ACHN renal
NCI-H23 lung = test system: NCI-H23 lung
DMS 273 small cell lung = test system: DMS 273 small cell lung
UACC-62 melanoma = test system: UACC-62 melanoma
NCI-H226 lung = test system: NCI-H226 lung
NCI-H522 lung = test system: NCI-H522 lung
A498 renal = test system: A498 renal
DLD-1 colon = test system: DLD-1 colon
K-562 leukemia = test system: K-562 leukemia
SF-295 CNS = test system: SF-295 CNS
M14 melanoma = test system: M14 melanoma
U251 CNS = test system: U251 CNS
LXFL 529 NSCLC = test system: LXFL 529 NSCLC
RXF 393 renal = test system: RXF 393 renal
HOP-92 NSCLC = test system: HOP-92 NSCLC
CAKI-1 renal = test system: CAKI-1 renal
SW-620 colon = test system: SW-620 colon
SNB-19 CNS = test system: SNB-19 CNS
SN12C renal = test system: SN12C renal
OVCAR-3 ovarian = test system: OVCAR-3 ovarian
DMS 114 small cell lung = test system: DMS 114 small cell lung
OVCAR-8 ovarian = test system: OVCAR-8 ovarian
KM20L2 colon = test system: KM20L2 colon
HOP-18 NSCLC = test system: HOP-18 NSCLC
NCI-H460 lung = test system: NCI-H460 lung
HCC-2998 colon = test system: HCC-2998 colon
SK-OV-3 ovarian = test system: SK-OV-3 ovarian
SK-MEL-5 melanoma = test system: SK-MEL-5 melanoma
M19-MEL melanoma = test system: M19-MEL melanoma
A549 NSCLC = test system: A549 NSCLC
UO-31 renal = test system: UO-31 renal
786-0 renal = test system: 786-0 renal
HT29 colon = test system: HT29 colon
OVCAR-4 ovarian = test system: OVCAR-4 ovarian
HCT-116 colon = test system: HCT-116 colon
SK-MEL-28 melanoma = test system: SK-MEL-28 melanoma
RXF-631 renal = test system: RXF-631 renal
EKVX NSCLC = test system: EKVX NSCLC
SF-539 CNS = test system: SF-539 CNS
HCT-15 colon = test system: HCT-15 colon
HOP-62 NSCLC = test system: HOP-62 NSCLC
TK-10 renal = test system: TK-10 renal
COLO 205 colon = test system: COLO 205 colon
SNB-75 CNS = test system: SNB-75 CNS
CCRF-CEM leukemia = test system: CCRF-CEM leukemia
SK-MEL-2 melanoma = test system: SK-MEL-2 melanoma
SNB-78 CNS = test system: SNB-78 CNS
LOX IMVI melanoma = test system: LOX IMVI melanoma
UACC-257 melanoma = test system: UACC-257 melanoma
MALME-3M melanoma = test system: MALME-3M melanoma
HL-60(TB) leukemia = test system: HL-60(TB) leukemia
KM12 colon = test system: KM12 colon
IGROV1 ovarian = test system: IGROV1 ovarian
SF-268 CNS = test system: SF-268 CNS
OVCAR-5 ovarian = test system: OVCAR-5 ovarian
RPMI-8226 leukemia = test system: RPMI-8226 leukemia
XF 498 CNS = test system: XF 498 CNS
MOLT-4 leukemia = test system: MOLT-4 leukemia
SR leukemia = test system: SR leukemia

Measured: TGI

O=C(Cc1nc(-c2ccccc2)cc(=O)n1-c1ccccc1Cl)c1ccncc1
82.6 µM: SNB-75 CNS
not listed: RPMI-8226 leukemia | XF 498 CNS | MOLT-4 leukemia | SR leukemia
> 100 µM: all other assays above

CC(C)C(N=c1c2ccccc2n(O)c2ccccc12)C(=O)O (stereo not given)
not listed: RXF 393 renal | HOP-92 NSCLC | SF-539 CNS | XF 498 CNS | MOLT-4 leukemia | SR leukemia
> 100 µM: all other assays above

O=C(CC1C(=O)Nc2ccccc2S1(=O)=O)Nc1cc(Cl)ccc1Cl (stereo not given)
7.23 µM: SF-539 CNS
30.6 µM: M14 melanoma
30.3 µM: NCI-H460 lung | SK-MEL-5 melanoma
71.1 µM: OVCAR-5 ovarian
31 µM: UO-31 renal | SNB-75 CNS
> 100 µM: UACC-257 melanoma
34.4 µM: SF-295 CNS
40.2 µM: SW-620 colon
41.9 µM: OVCAR-8 ovarian
32.8 µM: OVCAR-4 ovarian
30.4 µM: HOP-92 NSCLC
40.6 µM: MALME-3M melanoma
30 µM: EKVX NSCLC
32.7 µM: RXF 393 renal
33.7 µM: UACC-62 melanoma
24.4 µM: SF-268 CNS
33.6 µM: SNB-78 CNS
39.9 µM: TK-10 renal
26.9 µM: IGROV1 ovarian
29.8 µM: SNB-19 CNS
13.4 µM: RPMI-8226 leukemia
32.6 µM: KM20L2 colon
29 µM: OVCAR-3 ovarian
24.3 µM: SR leukemia
34.3 µM: HT29 colon
20.7 µM: 786-0 renal
62.5 µM: CCRF-CEM leukemia
33.4 µM: DLD-1 colon
35.7 µM: ACHN renal
30.2 µM: SN12C renal
88.9 µM: RXF-631 renal
35.3 µM: HL-60(TB) leukemia
32 µM: CAKI-1 renal
40.4 µM: NCI-H23 lung
35.4 µM: SK-MEL-2 melanoma
28 µM: HCT-116 colon
23.2 µM: MOLT-4 leukemia
27.6 µM: XF 498 CNS
18.1 µM: LOX IMVI melanoma
33.1 µM: A549 NSCLC
27.5 µM: HCT-15 colon
27 µM: DMS 114 small cell lung
34.1 µM: M19-MEL melanoma
27.1 µM: LXFL 529 NSCLC
41 µM: SK-MEL-28 melanoma
36.2 µM: HCC-2998 colon
22.6 µM: U251 CNS
35.8 µM: NCI-H226 lung
31.4 µM: A498 renal
42 µM: K-562 leukemia
